The record followed here is the METLIN SMRT retention time set (Domingo-Almenara et al. 2019).

The data set can be described thus: gradient 5% acetonitrile 3 min, to 50% in 2 min, to 85% in 15 min, held 3 min, 100 µL/min. The note with it: column: Zorbax Extend-C18 2.1 x 50 mm; eluents: water / acetonitrile, 0.1% formic acid. An outline of the steps:
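Standards, all pure, were combined into mixtures of ~100 molecules and run at 100 μL/min on a Zorbax Extend-C18 column (2.1 × 50 mm, 1.8 μm) with water and acetonitrile, each containing 0.1% formic acid. A coupled quadrupole time-of-flight mass spectrometer operated in positive and negative ionization mode. Retention time values come from computationally picked adduct peaks, each inspected manually.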
In the case of `CCOC(=O)c1c(-c2ccccc2)csc1NC(=O)c1ccccc1C(=O)O`, the RP-LC retention time was found to be 963 s.

On to `CN1CCN(CCCNC(=O)CC2CCN(C(=O)c3cc4cc(Cl)ccc4[nH]3)CC2)CC1`, for which the RP-LC retention time came to 569 s. Regarding `CN(C)C[C@@H]1CN(c2ccncn2)C[C@H]1NC(=O)c1nccc2ccccc12`, the RP-LC retention time was 557 s.

Molecule `COCCc1nnc(NC(=O)c2ccc3c(c2)CCCC3)o1` returned an RP-LC retention time of 702 s.

The molecule `O=C(NCCc1c[nH]c2ccccc12)c1cc2cccnc2n(Cc2ccccc2)c1=O` showed an RP-LC retention time of 1070 s. As to `O=C(C1=CN(c2ccc(F)c(Cl)c2)c2ccccc2S1(=O)=O)N1CCCC1`, the RP-LC retention time was 817 s.

In the case of `O=C(NC1CC1)C1CCCN(c2nccn3nc(-c4ccccc4Cl)cc23)C1` (centres undefined), the RP-LC retention time was found to be 788 s.

For the molecule `CC(C)c1noc(COC2CCCN(C(=O)NCc3ccccc3)C2)n1` (centres undefined), the RP-LC retention time worked out at 780 s. The result for `CCn1c(=O)c(N2CCCC(C(=O)NCCCN3CCOCC3)C2)nc2cccnc21` (centres undefined) reads 621 s; that for `CCc1ccccc1S(=O)(=O)N1CCC(C(=O)NCCc2csc(-c3ccccc3)n2)CC1`, 1010 s; that for `CCCOC(=O)c1[nH]c2c(c1C)C(=O)CC(c1cc(OC)c(OC)c(OC)c1)C2` (centres undefined), 610 s. `O=C(CN1CC(c2nc(-c3cccs3)no2)C1)N1CCc2ccccc21` came in with an RP-LC retention time of 605 s. The result for `COc1cc2nc(C(=O)N3CCC(C)CC3)cc(Nc3cccc(SC)c3)c2cc1OC` reads 776 s; that for `CCn1cc(C)c(C(=O)O)c1CC(=O)Nc1ccc(F)cc1F`, 811 s. `O=C(O)CNC(=O)C1CCN(S(=O)(=O)c2ccc(F)cc2)CC1` returned an RP-LC retention time of 652 s. In turn, `Cc1ccc(-c2ccc(=O)n(CCc3nc(-c4ccccc4)no3)n2)cc1C` gave an RP-LC retention time of 1050 s. Regarding `CC(C)c1ccc(Nc2nc3ccncc3n(Cc3ccccc3)c2=O)cc1`, the RP-LC retention time turned out to be 886 s. `O=c1[nH]c2ccc(NCc3ccc(-c4ccccc4Cl)o3)cc2[nH]1` displayed an RP-LC retention time of 717 s. In turn, `O=C(Nc1c(F)cccc1F)N1CCc2[nH]cnc2C1c1ccccc1` (centres undefined) showed an RP-LC retention time of 608 s. Regarding `Cc1ccc(C)c(-c2coc(-c3ccc(NC(=O)COc4ccc(F)cc4)cc3)n2)c1`, the RP-LC retention time was found to be 1310 s. As for `COc1ccc(-c2ccnc3nc(CCc4ccccc4)nn23)c(F)c1`, the RP-LC retention time was 963 s. Molecule `Cc1cccnc1NC(=O)Nc1c[nH]c2ccccc12` registered an RP-LC retention time of 826 s.

In the case of `Cc1cc(C)c2[nH]c3c(c(=O)c2c1)CN(CC(=O)Nc1ccc2c(c1)OCCO2)CC3`, the RP-LC retention time came to 604 s. The molecule `Cc1cccc(C)c1NC(=O)CSc1cc(N2CCN(c3ccccc3F)CC2)ncn1` registered an RP-LC retention time of 1100 s. For `O=S(=O)(c1cccc(F)c1)N1CCC(c2noc(-c3ccc(F)cc3)n2)CC1`, the RP-LC retention time is 1110 s. `O=C(Nc1cccn2ncnc12)c1ccccc1C(F)(F)F` came in with an RP-LC retention time of 765 s. Turning to `Cc1ccccc1NC(=O)C(=O)Nc1ccccc1C`, the RP-LC retention time was 1080 s. Consider `CCCNC(=O)N(C1CCOCC1)C1CCN(C(=O)c2nn(C)c3ccccc23)CC1`, for which the RP-LC retention time was 1150 s. Turning to `O=C(NCc1nc(-c2ccc3c(c2)Sc2ccccc2C(=O)N3C2CC2)no1)c1ccco1`, the RP-LC retention time was 861 s. In turn, `O=C(NCc1ccco1)c1ccc2c(c1)N(C(=O)c1ccc(F)cc1)CC2` showed an RP-LC retention time of 823 s. For `COC1CN(c2cccc(F)c2)C12CCN(C(=O)C1(c3ccccc3)CC1)CC2` (centres undefined) the value was 1120 s; for `Cc1ccc(-c2nc3nc(C)cc(N4CCCCC4C)n3n2)cc1` (centres undefined), 1050 s. For `CCOc1cc(=O)n2c(c1C(=O)Nc1ccc3c(c1)CCC3)CCCC2` the value was 815 s; for `CCC1CN2C=NC(N3CCN(C(=O)NCc4cccc(F)c4)CC3)=CC2=N1` (centres undefined), 615 s. The molecule `O=C(NC1CCCC1)c1cn(Cc2ccccc2)cc2c(=O)n(-c3ccccc3)nc1-2` yielded an RP-LC retention time of 1060 s. Consider `COc1ccc(N2CC(c3noc(-c4cc(F)cc(F)c4)n3)CC2=O)cc1OC` (centres undefined), for which the RP-LC retention time is 899 s. The result for `Cc1ccc(OCc2nc(C3CN(C(=O)C4(c5ccccc5)CC4)C3)no2)cc1` reads 1030 s.

In the case of `O=c1c2cc(-c3ccc(Cl)cc3)nn2ccn1Cc1nc(-c2cccc(F)c2)no1`, the RP-LC retention time came out at 1190 s. The molecule `COc1ccc(C(=O)Nc2ccc3c(c2)Sc2ncccc2C(=O)N3C)cn1` displayed an RP-LC retention time of 710 s. `CC(=O)N1CCc2cc(N3CC(C(=O)NCC4CCCO4)CC3=O)ccc21` (centres undefined) had an RP-LC retention time of 590 s. As to `CCS(=O)(=O)Nc1cccc(-c2nc3cccnc3s2)c1`, the RP-LC retention time turned out to be 720 s. `COC(=O)c1cc(S(=O)(=O)N2CCCC2C(=O)Nc2nc(C)cs2)cn1C` (centres undefined): the RP-LC retention time came to 791 s. In turn, `O=S(=O)(c1cc(-c2ccno2)cs1)N(CCc1ccccc1)Cc1ccccc1` registered an RP-LC retention time of 1200 s.

With `CC(C)n1ncc(NC(=O)Cc2ccc(Cl)cc2)c(N2CCOCC2)c1=O`, the RP-LC retention time amounted to 856 s. `CNC(=O)C1CCCN(c2nc3ncn(CC(=O)Nc4ccccc4F)c(=O)c3s2)C1` (centres undefined) showed an RP-LC retention time of 634 s. The result for `CCCNC(=O)CCc1nc2ccccc2n(CC(=O)Nc2ccc(CC)cc2)c1=O` reads 852 s. `COc1ccc(-c2noc(CSc3nccn3-c3ccccc3)n2)cc1` had an RP-LC retention time of 869 s.

Turning to `CC(C)(NC(=O)C1CCC1)c1nc2c(c(C(N)=O)n1)OCCO2`, the RP-LC retention time worked out at 586 s. `COc1ccc(-c2noc(Cc3nc(-c4ccc(Cl)cc4)cs3)n2)cc1` displayed an RP-LC retention time of 1270 s. `Cc1nc(CC(=O)NC(C)c2ccc(F)cc2)sc1C(=O)NC1CC1` (centres undefined) gave an RP-LC retention time of 683 s.

For the molecule `CCCNC(=O)Cn1c(C)cc(=O)n2nc(-c3ccc(Cl)cc3)nc12`, the RP-LC retention time was 871 s.

Molecule `COc1ccc(NC(=O)N2CCC(Cc3nc4cccnc4n3C(C)C)C2)c(OC)c1` (centres undefined) yielded an RP-LC retention time of 626 s. `Cc1ccsc1C(=O)N1CCC(n2cnnc2-c2ccccc2)C1` (centres undefined) returned an RP-LC retention time of 662 s. `O=C(NCCN1CCCC1)C1CCN(c2nc3cccnc3s2)CC1`: the RP-LC retention time is 561 s. In turn, `CCOc1c(Br)cc(C(=O)Nc2ccc(C(=O)O)cc2)cc1C(=O)c1ccc(C)cc1` came in with an RP-LC retention time of 1130 s.

Consider `COc1ccc(NC(=O)C2=C(C)NC(=O)NC2c2ccccc2Br)c(OC)c1` (centres undefined), for which the RP-LC retention time was 698 s. In turn, `Cn1c(CN2CCN(C(=O)c3ccco3)CC2)nc2cc(NC(=O)C3CCCCC3)ccc21` gave an RP-LC retention time of 664 s. For the molecule `CCCN1C(=O)c2ccccc2Sc2cc(-c3noc(C(C)NC(=O)c4ccco4)n3)ccc21` (centres undefined), the RP-LC retention time was 984 s. `CCc1ccc(Oc2nccnc2N2CCC(C(=O)N3CCN(c4ccccn4)CC3)CC2)cc1` displayed an RP-LC retention time of 734 s. In turn, `COc1cccc(NC(=O)CSc2cc(N3CCN(c4ccccc4F)CC3)ncn2)c1` came in with an RP-LC retention time of 1060 s. `Cc1nc(OCC(=O)Nc2ccc(Cl)c(Cl)c2)c2ccccc2n1`: the RP-LC retention time stood at 859 s. The result for `O=C(Cn1cccc1-c1nnc(-c2ccccc2)o1)Nc1cccc(Cl)c1` reads 1050 s; that for `Cc1noc(-c2ccc(NC(=O)CSc3nnnn3C)cc2)n1`, 665 s; that for `COc1ccccc1N1CCN(S(=O)(=O)c2cc(-c3nc(C(C)C)cs3)sc2C)CC1`, 1410 s. `C=CCc1ccccc1OCC(O)CNC` (centres undefined) came in with an RP-LC retention time of 566 s. Consider `CN(CC(=O)Nc1ccc(F)c(F)c1F)c1nc2c(Cl)cccc2s1`, for which the RP-LC retention time came to 1000 s. Molecule `O=C(Nc1cccc(-c2ccc3nnc(-c4cccs4)n3n2)c1)C1CCCC1` showed an RP-LC retention time of 792 s. In the case of `Cc1oc2ccn(Cc3cccc(F)c3)c(=O)c2c1C(=O)NCc1cc(F)cc(F)c1`, the RP-LC retention time was determined as 1130 s. In turn, `CCn1nccc1C(=O)N1CCCC1c1cccc(C)c1` (centres undefined) came in with an RP-LC retention time of 849 s. The molecule `CCc1noc(-c2cccnc2N2CCCN(Cc3ccccc3F)CC2)n1` showed an RP-LC retention time of 662 s. Consider `CCc1cc(C(=O)Cc2nc3ccccc3n2C)c(O)cc1O`, for which the RP-LC retention time came out at 587 s. On to `COc1ccc(C(O)CN2CCN(c3ccccc3C)CC2)cc1OC` (centres undefined), for which the RP-LC retention time was 654 s. For `CCCn1c(=O)c(C)nc2cc(-c3noc(Cc4ccc(OC)c(OC)c4)n3)ccc21` the value was 930 s; for `O=C(NC1CCS(=O)(=O)C1)C1CCN(c2cnn(Cc3ccccc3)c(=O)c2)C1` (centres undefined), 662 s; for `Cc1ccc(S(=O)(=O)NC2CCN(C(=O)C3CC(=O)N(C4CCCC4)C3)CC2)cc1` (centres undefined), 727 s. As for `Cc1ccc(NC(=O)C2CCCN2S(=O)(=O)c2cc3c(cc2C)NC(=O)CO3)cc1` (centres undefined), the RP-LC retention time came out at 758 s. As to `Cc1ccc(-c2noc(CN3N=NC4C(=O)N(c5ccc(C)c(C)c5)C(=O)C43)n2)cc1` (centres undefined), the RP-LC retention time came to 1110 s. In turn, `CCn1c(CCNC(=O)c2ccc(F)c(Cl)c2)nc2cccnc21` had an RP-LC retention time of 676 s. `Cc1cc(=O)n(CC(=O)Nc2ccccc2F)c(N)n1` returned an RP-LC retention time of 581 s.
